Test results as given in US8273769B2, “Phenoxy acetic acid derivatives” (Merck Serono SA, priority 2009, dated 2012).

What was measured:
CRTH2 = target: T1, CRTH2 (Homo sapiens, UniProt Q9Y5Y4); assay: Radioligand binding Scintillation Proximity Assay ([3H]PGD2, hCRTH2-CHO cell membranes); set-up: host or cells: CHO cells; conditions: 1.5 nM [3H]PGD2, hCRTH2-CHO cell membranes, SPA
T1 sequence (Q9Y5Y4 1-395): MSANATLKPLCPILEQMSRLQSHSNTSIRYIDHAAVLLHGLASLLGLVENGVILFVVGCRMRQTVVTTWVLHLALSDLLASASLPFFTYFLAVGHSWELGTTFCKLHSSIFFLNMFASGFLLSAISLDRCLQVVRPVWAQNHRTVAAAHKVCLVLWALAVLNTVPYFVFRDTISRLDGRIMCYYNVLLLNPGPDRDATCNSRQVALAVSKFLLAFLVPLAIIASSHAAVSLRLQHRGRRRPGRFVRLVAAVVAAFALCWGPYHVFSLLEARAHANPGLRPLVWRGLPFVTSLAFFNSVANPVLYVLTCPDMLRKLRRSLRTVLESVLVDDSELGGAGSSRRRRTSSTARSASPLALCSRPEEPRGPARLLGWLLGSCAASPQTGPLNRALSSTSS
Outline: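 SPA competition binding at room temperature, 90 min with agitation: 1.5 nM [3H]PGD2, 10-50 μg/ml hCRTH2-CHO membrane protein, WGA SPA beads, HEPES pH 7.4 with 10 mM MnCl2, 1% DMSO. Non-specific binding defined with 10 μM PGD2; scintillation counting.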

melting point	IC50 (CRTH2)	Compound
165 to 169 °C	3 nM	CCS(=O)(=O)c1ccc(F)c(C#Cc2cc(Cl)ccc2OCC(=O)O)c1 [Example 104, (4-chloro-2-{[5-(ethylsulfonyl)-2-fluorophenyl]ethynyl}phenoxy)acetic acid]
125 to 128 °C	2 nM	COCCS(=O)(=O)c1ccc(F)c(C#Cc2cc(Cl)ccc2OCC(=O)O)c1 [Example 106, [4-chloro-2-({2-fluoro-5-[(2-methoxyethyl)sulfonyl]phenyl}ethynyl)phenoxy]acetic acid]
80 to 95 °C	29 nM	COC1(C)c2ccc(C#Cc3cc(Cl)ccc3OCC(=O)O)cc2S(=O)(=O)C1(C)C (stereo not drawn) [Example 162, {4-chloro-2-[(3-methoxy-2,2,3-trimethyl-1,1-dioxido-2,3-dihydro-1-benzothien-6-yl)ethynyl]phenoxy}acetic acid]
